pIC50: −log10 of the molar value.
Experiments:
[1] = tested on: 5 Leukemia and 5 Colon Cancer Cell Lines; assay: Cell viability by XTT, cell line panel; assay type: cell-based; settings: for ARF (Average Response Factor, Average Percentage of Control) / Range (Percentage of Control over the same 10 cell lines): 10 μM; for ARF (Average Response Factor, Average Percentage of Control) / viability at 10 µM: average of the ten Percentage of Control values; for Range (Percentage of Control over the same 10 cell lines): lowest to highest of the ten cell lines; for viability at 10 µM: read-out: ARF (Average Response Factor, Average Percentage of Control)
Protocol: Compounds were solubilized at […] in DMSO and were stored at −20° C. Test compounds were initially tested at a single concentration of 10 μM and a subset of test compounds were further tested in selected cell lines using a six concentration dose response curve.
Cell Preparation Cancer cell lines were passaged in T-75 flasks prior to use in the assay in cell culture medium recommended by the ATCC (American Type Culture Collection; Table 6). On the day preceding the assay, the cells were split 1:2 to assure they were in an exponential growth phase at the time of compound treatment. Total cell and viability quantification was performed using a hemocytometer and Trypan Blue dye exclusion. […] The cells were resuspended at the appropriate cell per mL (Table 6) in tissue culture medium and added to the microtitre plates in a volume of 100 μL. Colon cell lines were incubated overnight at 37° C./5% CO2 to allow for cell adherence to the plates.
Plate Format: Each plate contains cell control wells (cells only), drug calorimetric control wells (drug only) as well as experimental wells (drug plus cells). Samples were tested in triplicate at a concentration of 10 μM and five half-logarithmic dilutions.
Cell Viability by XTT: Following incubation at 37° C. in a 5% CO2 incubator for four days, the test plates were stained with the tetrazolium dye XTT (2,3-bis(2-methoxy-4-nitro-5-sulfophenyl)-5-[(phenylamino)carbonyl]-2H-tetrazolium hydroxide). XTT-tetrazolium was metabolized by the mitochondrial enzymes of metabolically active cells to a soluble formazan product. XTT solution was prepared daily as a stock of 1 mg/mL in RPMI1640. Phenazine methosulfate (PMS) solution was prepared at 0.15 mg/mL in phosphate buffered saline (PBS) and stored in the dark at −20° C. XTT/PMS stock was prepared immediately before use by adding 40 μL of PMS per mL of XTT solution. Fifty (50) microlitres of XTT/PMS was added to each well of the plate and the plate was reincubated for 4 hours at 37° C. Plates were sealed with adhesive plate sealers and shaken gently or inverted several times to mix the soluble formazan product and the plate was read spectrophotometrically at 450/650 nm with a Molecular Devices Vmax plate reader. […] An Average Response Factor (ARF) was calculated for each compound by averaging the ten Percentage of Control values for the cell lines. […] Deviations below 100% control indicate activity. The concentration of each tested compound is 10 μM.

Calf polymerase alpha = biological target: T1, Calf polymerase alpha (Bos taurus, UniProt A0AAA9TD94); assay: Calf polymerase alpha inhibition (Replizyme kit); assay type: biochemical; settings: for % Inhibition / inhibition at 10 µM: at 10 μM, single point screening
T1 construct: purchased Replizyme Ltd (Heslington, York, UK)
T1 sequence (A0AAA9TD94 1-1441): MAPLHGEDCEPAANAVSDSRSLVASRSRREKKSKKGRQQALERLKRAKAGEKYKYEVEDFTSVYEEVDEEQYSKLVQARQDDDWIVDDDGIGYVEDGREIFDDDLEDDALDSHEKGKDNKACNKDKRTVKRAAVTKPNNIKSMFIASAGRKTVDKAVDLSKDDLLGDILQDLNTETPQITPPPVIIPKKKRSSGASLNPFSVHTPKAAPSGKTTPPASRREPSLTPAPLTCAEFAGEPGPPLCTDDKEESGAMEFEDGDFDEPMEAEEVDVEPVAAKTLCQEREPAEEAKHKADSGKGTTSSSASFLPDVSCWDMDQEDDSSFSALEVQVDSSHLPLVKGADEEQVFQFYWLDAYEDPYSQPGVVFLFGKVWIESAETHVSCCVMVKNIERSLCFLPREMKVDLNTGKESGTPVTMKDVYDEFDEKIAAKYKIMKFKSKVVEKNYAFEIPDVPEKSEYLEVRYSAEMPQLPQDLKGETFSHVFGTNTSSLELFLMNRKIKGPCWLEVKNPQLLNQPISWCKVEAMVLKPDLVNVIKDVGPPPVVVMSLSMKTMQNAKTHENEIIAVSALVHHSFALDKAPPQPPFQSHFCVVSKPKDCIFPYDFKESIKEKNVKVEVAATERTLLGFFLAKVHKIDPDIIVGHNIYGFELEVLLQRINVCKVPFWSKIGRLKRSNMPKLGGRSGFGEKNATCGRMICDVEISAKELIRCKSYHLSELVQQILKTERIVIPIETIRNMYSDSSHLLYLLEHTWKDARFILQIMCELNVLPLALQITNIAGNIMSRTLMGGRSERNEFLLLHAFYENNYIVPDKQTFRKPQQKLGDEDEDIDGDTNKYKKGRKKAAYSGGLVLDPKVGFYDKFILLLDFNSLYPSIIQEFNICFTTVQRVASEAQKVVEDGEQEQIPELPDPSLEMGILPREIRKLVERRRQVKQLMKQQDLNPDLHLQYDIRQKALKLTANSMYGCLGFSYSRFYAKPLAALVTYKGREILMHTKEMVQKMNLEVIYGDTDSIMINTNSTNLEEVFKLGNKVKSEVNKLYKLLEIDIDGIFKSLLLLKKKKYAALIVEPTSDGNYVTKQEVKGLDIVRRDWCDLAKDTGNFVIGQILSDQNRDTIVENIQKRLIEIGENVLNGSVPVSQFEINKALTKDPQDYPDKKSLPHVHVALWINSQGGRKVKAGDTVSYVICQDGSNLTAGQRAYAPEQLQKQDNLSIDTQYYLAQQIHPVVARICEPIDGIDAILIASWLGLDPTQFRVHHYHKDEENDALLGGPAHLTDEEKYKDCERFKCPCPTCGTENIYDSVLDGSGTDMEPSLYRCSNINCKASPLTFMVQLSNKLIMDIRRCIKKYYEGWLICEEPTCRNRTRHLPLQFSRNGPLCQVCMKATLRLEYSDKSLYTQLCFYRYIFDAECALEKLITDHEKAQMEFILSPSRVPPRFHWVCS
Protocol: Calf polymerase alpha and human polymerase alpha investigations were performed with a kit available from Replizyme Ltd (Heslington, York, UK).

SMILES | Range (Percentage of Control over the same 10 cell lines) [1] | % Inhibition (Calf polymerase alpha) | inhibition at 10 µM (Calf polymerase alpha) | also measured
Cc1ccc(NC(=O)[C@H](CCCCN)NS(=O)(=O)c2ccc(-c3ccccc3)cc2)cc1 [Compound 70, (S)-6-AMINO-2-(BIPHENYL-4-SULFONYLAMINO)-HEXANOIC ACID P-TOLYLAMIDE] | 61.1 to 115.5% | 50% |  | ARF (Average Response Factor, Average Percentage of Control) [1]: 94.5%
NCCCC[C@H](NC(=O)OCC1c2ccccc2-c2ccccc21)C(=O)Nc1ccc2c(c1)CCC2 [Compound 81, (S)-[5-AMINO-1-(INDAN-5-YLCARBAMOYL)-PENTYL]-CARBAMIC ACID 9H-FLUOREN-9-YLMETHYL ESTER] | 61.3 to 116.5% |  | 101% | viability at 10 µM [1]: 94.2%
Cc1ccc(NC(=O)[C@H](CCCCN)NC(=O)Nc2cccc(Oc3ccccc3)c2)cc1 [Compound 98, (S)-6-AMINO-2-[3-(3-PHENOXY-PHENYL)-UREIDO]-HEXANOIC ACID P-TOLYLAMIDE] | 53.8 to 126.6% | 89% |  | ARF (Average Response Factor, Average Percentage of Control) [1]: 90.8%
NCCCC[C@H](NC(=O)Nc1ccc(OCc2ccccc2)cc1)C(=O)Nc1ccc(C2CCCCC2)cc1 [Compound 117, (S)-6-AMINO-2-[3-(4-BENZYLOXY-PHENYL)-UREIDO]-HEXANOIC ACID (4-CYCLOHEXYL-PHENYL)-AMIDE] | 35.7 to 125.7% |  | 102% | viability at 10 µM [1]: 86.5%
NCCCCC[C@H](NC(=O)NCc1ccccc1)C(=O)Nc1ccc(C2CCCCC2)cc1 [Compound 120, (S)-7-AMINO-2-(3-BENZYL-UREIDO)-HEPTANOIC ACID (4-CYCLOHEXYL-PHENYL)-AMIDE] | 40.4 to 117.1% |  | 100% | viability at 10 µM [1]: 88.4%
Cc1ccc(NC(=O)[C@H](CCCN)NC(=O)Nc2ccc(OCc3ccccc3)cc2)cc1 [Compound 189, (S)-5-AMINO-2-[3-(4-BENZYLOXY-PHENYL)-UREIDO]-PENTANOIC ACID P-TOLYLAMIDE] | 66.6 to 107.6% | 76% |  | ARF (Average Response Factor, Average Percentage of Control) [1]: 89.0%
Cc1ccc(NC(=O)[C@H](CCCCN)NC(=O)Nc2cccc(OCc3ccccc3)c2)cc1 [Compound 204, (S)-6-AMINO-2-[3-(3-BENZYLOXY-PHENYL)-UREIDO]-HEXANOIC ACID P-TOLYLAMIDE] | 70.1 to 116.4% | 94% |  | ARF (Average Response Factor, Average Percentage of Control) [1]: 89.3%
Cc1cc2cc(NC(=O)[C@H](CCCCN)NC(=O)Nc3ccc(OCc4ccccc4)cc3)ccc2[nH]1 [Compound 206, (S)-6-AMINO-2-[3-(4-BENZYLOXY-PHENYL)-UREIDO]-HEXANOIC ACID (2-METHYL-1H-INDOL-5-YL)-AMIDE] | 81.4 to 107.6% |  | 87% | viability at 10 µM [1]: 92.9%
Cc1ccc(NC(=O)[C@H](CCCCN)NC(=O)Nc2ccc(CCc3ccccc3)cc2)cc1 [Compound 243, (S)-6-AMINO-2-[3-(4-PHENETHYL-PHENYL)-UREIDO]-HEXANOIC ACID P-TOLYLAMIDE] |  | 0% |  | 
Cc1ccc(NC(=O)[C@H](CCCCN)NC(=O)Nc2ccc(OCc3ccccc3F)cc2)cc1 [Compound 248, (S)-6-AMINO-2-{3-[4-(2-FLUORO-BENZYLOXY)-PHENYL]-UREIDO}-HEXANOIC ACID P-TOLYLAMIDE] |  | 61% |  | 
Cc1ccc(NC(=O)[C@H](CCCCN)NC(=O)Nc2ccc(OCc3cccc(F)c3)cc2)cc1 [Compound 249, (S)-6-AMINO-2-{3-[4-(3-FLUORO-BENZYLOXY)-PHENYL]-UREIDO}-HEXANOIC ACID P-TOLYLAMIDE] |  | 67% |  | 
Cc1ccc(NC(=O)[C@H](CCCCN)NC(=O)Nc2ccc(OCc3ccc(F)cc3)cc2)cc1 [Compound 250, (S)-6-AMINO-2-{3-[4-(4-FLUORO-BENZYLOXY)-PHENYL]-UREIDO}-HEXANOIC ACID P-TOLYLAMIDE] |  | 57% |  | 
Cc1ccc(NC(=O)[C@H](CCCCN)NC(=O)Nc2ccc(OCc3cccnc3)cc2)cc1 [Compound 261, (S)-6-AMINO-2-{3-[4-(PYRIDIN-3-YLMETHOXY)-PHENYL]-UREIDO}-HEXANOIC ACID P-TOLYLAMIDE] |  | 55% |  | 
NCCCCCCNC(=O)[C@H](Cc1ccccc1)NC(=O)Nc1ccc(OCc2ccccc2)cc1 [Compound 263, (S)—N-(6-AMINO-HEXYL)-2-[3-(4-BENZYLOXY-PHENYL)-UREIDO]-3-PHENYL-PROPIONAMIDE] |  |  | 31% | 
Cc1ccc(NC(=O)[C@H](CNC(=O)CN)NC(=O)Nc2ccc(OCc3ccccc3)cc2)cc1 [Compound 268, (S)-3-(2-AMINO-ACETYLAMINO)-2-[3-(4-BENZYLOXY-PHENYL)-UREIDO]-N-P-TOLYL-PROPIONAMIDE] |  | 62.7% |  | 
Cc1ccc(NC(=O)CN(CCCCN)C(=O)Nc2ccc(OCc3ccccc3)cc2)cc1 [Compound 278, 2-[1-(4-AMINO-BUTYL)-3-(4-BENZYLOXY-PHENYL)-UREIDO]-N-P-TOLYL-ACETAMIDE] |  | 101% |  | 
Cc1ccc(NC(=O)[C@H](CCCCN)NC(=O)Nc2ccc(OCc3ccncc3)cc2)cc1 [Compound 279, (S)-6-AMINO-2-{3-[4-(PYRIDIN-4-YLMETHOXY)-PHENYL]-UREIDO}-HEXANOIC ACID P-TOLYLAMIDE] |  | 15% |  | 
NCCCCN(CC(=O)Nc1cccc2[nH]ccc12)C(=O)Nc1ccc(OCc2ccccc2)cc1 [Compound 281, 2-[1-(4-AMINO-BUTYL)-3-(4-BENZYLOXY-PHENYL)-UREIDO]-N-(1H-INDOL-4-YL)-ACETAMIDE] |  |  | 30.5% | pIC50 (Calf polymerase alpha; dose response): 5.04
Cc1ccc(NC(=O)C(CCCCN)NC(=O)OCC2c3ccccc3-c3ccccc32)cn1 (stereo not shown) [Compound 294, [5-AMINO-1-(6-METHYL-PYRIDIN-3-YLCARBAMOYL)-PENTYL]-CARBAMIC ACID 9H-FLUOREN-9-YLMETHYL ESTER] |  |  | 19% | 
NCCCCCCNC(=O)[C@@H](NC(=O)OCC1c2ccccc2-c2ccccc21)c1ccccc1 [Compound 313, (S)-[(6-AMINO-HEXYLCARBAMOYL)-PHENYL-METHYL]-CARBAMIC ACID 9H-FLUOREN-9-YLMETHYL ESTER] |  |  | 43% | 

From patent publication US20080171783A1, “COMPOSITIONS AND METHODS FOR TREATING HYPERPROLIFERATIVE DISEASE” (Migenix Inc., priority 2006, published 2008)
